pIC50: −log10 of the molar value.

The target of the assay is T1, recombinant human Flag-tagged PARP7 (amino acids 456-657) (Homo sapiens, UniProt Q7Z3E1).
T1 construct: recombinant human Flag-tagged PARP7 (amino acids 456-657)
T1 sequence (Q7Z3E1 456-657): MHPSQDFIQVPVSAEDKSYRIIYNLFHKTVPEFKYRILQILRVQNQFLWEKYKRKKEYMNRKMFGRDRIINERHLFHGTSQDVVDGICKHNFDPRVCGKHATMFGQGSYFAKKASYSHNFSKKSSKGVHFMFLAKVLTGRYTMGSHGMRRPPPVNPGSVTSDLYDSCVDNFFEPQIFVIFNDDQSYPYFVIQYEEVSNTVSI
The assay can be described thus: PARP7 biochemical DELFIA assay (auto-MARylation). The conditions noted are these: DELFIA readout, IC50 class. The method, then:
A suitable assay may be conducted using 10-30 nM PARP7 (amino acids 456-657), 2 μM biotin-NAD assay solution in 20 mM HEPES (pH 7.5), 100 mM NaCl, 2 mM DTT, 0.1% BSA (w/v), 0.02% Tween (v/v) assay buffer. MARylation may take place for 2-3 h at room temperature and may be detected using a dissociation-enhanced lanthanide fluorescence immunoassay (DELFIA) readout. This assay format has been recently utilised for screening for modulators of PARP7 and other MonoPARP enzymes ([…]. et al. Forced Self-Modification Assays as a Strategy to Screen MonoPARP Enzymes. SLAS Discovery. 25; 241-252, (2020)). A particularly suitable assay is described in the Examples below. Optiplate HB 384-well plates were coated with anti-FLAG antibody, supplied as a 4 mg/ml solution, using a Na2CO3/HCO3 coating buffer at pH 9.6, overnight at 4° C., in order to achieve a final immobilisation per well of 0.3 μg. Wells were then washed 3× in coating wash buffer (PBS/0.05% Tween (v/v)), blocked with 2% BSA (w/v) in coating wash buffer and washed 3 further times prior to assay. For the assay 20 μl of 12.5-37.5 nM recombinant human Flag-tagged PARP7 (amino acids 456-657) was added to each well of the 384-well plate for 30 min at room temperature. 50 nl of test compound in DMSO was added using pintool technology and plates were incubated for a further 30 min at room temperature. 5 μl of 15 μM biotin-NAD^+ assay solution in 20 mM HEPES (pH 7.5), 100 mM NaCl, 2 mM DTT, 0.1% BSA (w/v), 0.02% Tween (v/v) assay buffer was then added and MARylation proceeded for 2-3 h at room temperature prior to the addition of 5 μl of 12 mM NAD^+ quenching solution. After 30 min at room temperature, assay solution was removed and following washing 5 times, 100 μl of a 1:1000 dilution of DELFIA Eu-N1 Streptavidin reagent was added. Plates were then incubated for 30 min at room temperature. Reaction mixture was removed and plates washed 5 times prior to the addition of 25 μl DELFIA enhancement solution. Following incubation for 30 min at room temperature, fluorescence was read on either an Envision or Pherastar FS (Ex337 nm, Em620 nm).

On to `CC(COCCC(=O)N1CCN(c2nc(C#N)co2)CC1)n1nc(C(F)(F)F)c2c(=O)[nH]ncc21` (single isomer, unassigned) [Compound 318], for which the pIC50 is 6.00 to 7.00.
For `CC(COCCC(=O)N1CCN(c2nc(C#N)co2)CC1)n1nc(C(F)(F)F)c2c(=O)[nH]ncc21` (single isomer, unassigned) [Compound 319] the value was at least 7.00; for `CC(COCCC(=O)N1CCN(c2ncc(C#N)cn2)CC1)n1nc(C(F)(F)F)c2c(=O)[nH]ncc21` (single isomer, unassigned) [Compound 321, 2-(4-(3-(2-(4-oxo-3-(trifluoromethyl)-4,5-dihydro-1H-pyrazolo[3,4-d]pyridazin-1-yl)propoxy)propanoyl)piperazin-1-yl) pyrimidine-5-carbonitrile], at least 7.00.
The value for `CC(COCCC(=O)N1CCN(c2ncc(C#N)cn2)CC1)n1nc(C(F)(F)F)c2c(=O)[nH]ncc21` (single isomer, unassigned) [Compound 322, 2-(4-(3-(2-(4-oxo-3-(trifluoromethyl)-4,5-dihydro-1H-pyrazolo[3,4-d]pyridazin-1-yl)propoxy)propanoyl)piperazin-1-yl) pyrimidine-5-carbonitrile] was at least 7.00; that for `CC(COCCC(=O)N1CCN(c2cnc(C(F)F)cn2)CC1)n1nc(C(F)(F)F)c2c(=O)[nH]ncc21` (single isomer, unassigned) [Compound 323] was at least 7.00.
Regarding `CC(COCCC(=O)N1CCN(c2cnc(C(F)F)cn2)CC1)n1nc(C(F)(F)F)c2c(=O)[nH]ncc21` (single isomer, unassigned) [Compound 324], the pIC50 was at least 7.00.
For `CNC(=O)c1cnc(N2CCN(C(=O)CCOCC(C)n3nc(C(F)(F)F)c4c(=O)[nH]ncc43)CC2)nc1` (single isomer, unassigned) [Compound 326] the value was at least 7.00; for `CC(CCOCC(=O)N1CCN(c2ncc(C(F)(F)F)cn2)CC1)n1nc(C(F)(F)F)c2c(=O)[nH]ncc21` (single isomer, unassigned) [Compound 327, 1-(4-(2-oxo-2-(4-(5-(trifluoromethyl)pyrimidin-2-yl)piperazin-1-yl)ethoxy)butan-2-yl)-3-(trifluoromethyl)-1,5-dihydro-4H-pyrazolo[3,4-d]pyridazin-4-one], at least 7.00; for `CC(CCOCC(=O)N1CCN(c2ncc(C(F)(F)F)cn2)CC1)n1nc(C(F)(F)F)c2c(=O)[nH]ncc21` (single isomer, unassigned) [Compound 328, 1-(4-(2-oxo-2-(4-(5-(trifluoromethyl)pyrimidin-2-yl)piperazin-1-yl)ethoxy)butan-2-yl)-3-(trifluoromethyl)-1,5-dihydro-4H-pyrazolo[3,4-d]pyridazin-4-one], at least 7.00.
With `COc1cnc(N2CCN(C(=O)CCOCC(C)n3nc(C(F)(F)F)c4c(=O)[nH]ncc43)CC2)nc1` (single isomer, unassigned) [Compound 331], the pIC50 is at least 7.00.
The value for `COc1cnc(N2CCN(C(=O)CCOCC(C)n3nc(C(F)(F)F)c4c(=O)[nH]ncc43)CC2)nc1` (single isomer, unassigned) [Compound 332] was at least 7.00; that for `Cc1nn(C(C)COCCC(=O)N2CCN(c3ncc(Cl)cn3)CC2)c2cn[nH]c(=O)c12` (single isomer, unassigned) [Compound 335] was at least 7.00; that for `CCC(COCCC(=O)N1CCN(c2ncc(C(F)(F)F)cn2)CC1)n1cc(C(F)(F)F)c2c(=O)[nH]ncc21` (single isomer, unassigned) [Compound 338] was at least 7.00.
`CCC(COCCC(=O)N1CCN(c2ncc(C(F)(F)F)cn2)CC1)n1cc(C(F)(F)F)c2c(=O)[nH]ncc21` (single isomer, unassigned) [Compound 339]: the pIC50 was at least 7.00.
The value for `CC(COCCC(=O)N1CCN(c2noc(C(F)(F)F)n2)CC1)n1nc(C(F)(F)F)c2c(=O)[nH]ncc21` (single isomer, unassigned) [Compound 344] was at least 7.00; that for `CC(COCCC(=O)N1CCN(c2ncc(F)cc2F)CC1)n1nc(C(F)(F)F)c2c(=O)[nH]ncc21` (single isomer, unassigned) [Compound 350] was at least 7.00; that for `CC(COCCC(=O)N1CCN(c2ncccc2Cl)CC1)n1nc(C(F)(F)F)c2c(=O)[nH]ncc21` (single isomer, unassigned) [Compound 356] was 6.00 to 7.00.
The value for `Cc1c(C)n(C(C)COCCC(=O)N2CCN(c3ncc(C(F)(F)F)cn3)CC2)c2cn[nH]c(=O)c12` (single isomer, unassigned) [Compound 365] was at least 7.00.
For `Cc1c(C)n(C(C)COCCC(=O)N2CCN(c3ncc(C(F)(F)F)cn3)CC2)c2cn[nH]c(=O)c12` (single isomer, unassigned) [Compound 366] the value was at least 7.00; for `CC(COCCC(=O)N1CCN(c2ncccc2F)CC1)n1nc(C(F)(F)F)c2c(=O)[nH]ncc21` (single isomer, unassigned) [Compound 368], 6.00 to 7.00; for `CC1CN(c2ncc(C(F)(F)F)cn2)CCN1C(=O)CCOCCn1cc(C(F)(F)F)c2c(=O)[nH]ncc21` (single isomer, unassigned) [Compound 370], at least 7.00.
Consider `CC1CN(c2ncc(C(F)(F)F)cn2)CCN1C(=O)CCOCCn1cc(C(F)(F)F)c2c(=O)[nH]ncc21` (single isomer, unassigned) [Compound 371], for which the pIC50 was at least 7.00.
For `CC(COCCC(=O)N1CCN(c2ccc(Cl)cn2)CC1)n1cc(C(F)(F)F)c2c(=O)[nH]ncc21` (single isomer, unassigned) [Compound 375] the value was at least 7.00; for `CC(COCCC(=O)N1CCN(c2ncc(OC(F)(F)F)cn2)CC1)n1nc(C(F)(F)F)c2c(=O)[nH]ncc21` (single isomer, unassigned) [Compound 387], at least 7.00.
With `CC(COCCC(=O)N1CCN(c2nnc(C(F)(F)F)[nH]2)CC1)n1nc(C(F)(F)F)c2c(=O)[nH]ncc21` (single isomer, unassigned) [Compound 393], the negative logarithm of the IC50 (pIC50) was at least 7.00.
For `CC(COCCC(=O)N1CCN(c2ncc(C(F)(F)F)cn2)CC1)n1cc(C(F)F)c2c(=O)[nH]ncc21` (single isomer, unassigned) [Compound 395, 3-(difluoromethyl)-1-(1-(3-oxo-3-(4-(5-(trifluoromethyl)pyrimidin-2-yl)piperazin-1-yl)propoxy)propan-2-yl)-1,5-dihydro-4H-pyrrolo[2,3-d]pyridazin-4-one] the value was at least 7.00.
The value for `CC(COCCC(=O)N1CCN(c2ncc(C(F)(F)F)cn2)CC1)n1cc(C(F)F)c2c(=O)[nH]ncc21` (single isomer, unassigned) [Compound 396, 3-(difluoromethyl)-1-(1-(3-oxo-3-(4-(5-(trifluoromethyl)pyrimidin-2-yl)piperazin-1-yl)propoxy)propan-2-yl)-1,5-dihydro-4H-pyrrolo[2,3-d]pyridazin-4-one] was at least 7.00; that for `CC(COCCC(=O)N1CCN(c2ncccc2C#N)CC1)n1nc(C(F)(F)F)c2c(=O)[nH]ncc21` (single isomer, unassigned) [Compound 405] was 6.00 to 7.00; that for `CC(COCCC(=O)N1CCN(c2ncccc2C#N)CC1)n1nc(C(F)(F)F)c2c(=O)[nH]ncc21` (single isomer, unassigned) [Compound 406] was at least 7.00.
The value for `CC(COCCn1cc(C(F)(F)F)c2c(=O)[nH]ncc21)C(=O)N1CCN(c2ncc(C(F)(F)F)cn2)CC1` (single isomer, unassigned) [Compound 411] was at least 7.00.
As to `CC(COCCC(=O)N1CCN(c2ncc(C#N)cn2)CC1)c1ccc(Cl)c2c(=O)[nH]ncc12` (single isomer, unassigned) [Compound 414], the negative-log IC50 (pIC50) was 6.00 to 7.00.
The value for `CC(COCCC(=O)N1CCN(c2ccc(C#N)cn2)CC1)c1ccc(Cl)c2c(=O)[nH]ncc12` (single isomer, unassigned) [Compound 416] was at least 7.00; that for `CC(COCCC(=O)N1CCN(c2cc(F)c(F)cn2)CC1)n1nc(C(F)(F)F)c2c(=O)[nH]ncc21` (single isomer, unassigned) [Compound 418] was at least 7.00.
Consider `CC(COCCC(=O)N1CCN(c2cc(F)c(F)cn2)CC1)n1nc(C(F)(F)F)c2c(=O)[nH]ncc21` (single isomer, unassigned) [Compound 419], for which the pIC50 is at least 7.00.
